Among the targets are ZAP70 (Homo sapiens, UniProt P43403); HCK (Homo sapiens, UniProt P08631); FYN (Homo sapiens, UniProt P06241); EPHB1 (Homo sapiens, UniProt P54762); LCK (Homo sapiens, UniProt P06239); RET (Homo sapiens, UniProt P07949); ROCK2 (Homo sapiens, UniProt O75116); GSK3A (Homo sapiens, UniProt P49840); FGFR2 (Homo sapiens, UniProt P21802); KIT (Homo sapiens, UniProt P10721); BMPR2 (Homo sapiens, UniProt Q13873); STK35 (Homo sapiens, UniProt Q8TDR2); PAK3 (Homo sapiens, UniProt O75914); ACVRL1 (Homo sapiens, UniProt P37023); KIT(L576P) (Homo sapiens, UniProt P10721, L576P).

Common to all, as to assay: biochemical
Common to all, as to set-up: DiscoverX kinase panel, active-site competition binding (KINOMEscan type), percent of control at one concentration
Holding throughout (conditions): competition binding, percent of control

The target of the next test is T1, YANK1 (Homo sapiens, UniProt Q8WU08).
T1 construct: gene STK32A

A further test addresses T2, DCAMKL1 (Homo sapiens, UniProt O15075).
T2 construct: gene DCLK1

The next test concerns the target T3, SgK110 (Homo sapiens, UniProt P0C264).
T3 construct: gene SBK3

The target in a further test is T4, IKK-beta (Homo sapiens, UniProt O14920).
T4 construct: gene IKBKB

Test [1] has as its target T5, ABL1(F317I)-phosphorylated (Homo sapiens, UniProt P00519, F317I).
T5 construct: phosphorylated

The target in the next test is T6, MRCKB (Homo sapiens, UniProt Q9Y5S2).
T6 construct: gene CDC42BPB

EPHB1, sequence (P54762 whole entry): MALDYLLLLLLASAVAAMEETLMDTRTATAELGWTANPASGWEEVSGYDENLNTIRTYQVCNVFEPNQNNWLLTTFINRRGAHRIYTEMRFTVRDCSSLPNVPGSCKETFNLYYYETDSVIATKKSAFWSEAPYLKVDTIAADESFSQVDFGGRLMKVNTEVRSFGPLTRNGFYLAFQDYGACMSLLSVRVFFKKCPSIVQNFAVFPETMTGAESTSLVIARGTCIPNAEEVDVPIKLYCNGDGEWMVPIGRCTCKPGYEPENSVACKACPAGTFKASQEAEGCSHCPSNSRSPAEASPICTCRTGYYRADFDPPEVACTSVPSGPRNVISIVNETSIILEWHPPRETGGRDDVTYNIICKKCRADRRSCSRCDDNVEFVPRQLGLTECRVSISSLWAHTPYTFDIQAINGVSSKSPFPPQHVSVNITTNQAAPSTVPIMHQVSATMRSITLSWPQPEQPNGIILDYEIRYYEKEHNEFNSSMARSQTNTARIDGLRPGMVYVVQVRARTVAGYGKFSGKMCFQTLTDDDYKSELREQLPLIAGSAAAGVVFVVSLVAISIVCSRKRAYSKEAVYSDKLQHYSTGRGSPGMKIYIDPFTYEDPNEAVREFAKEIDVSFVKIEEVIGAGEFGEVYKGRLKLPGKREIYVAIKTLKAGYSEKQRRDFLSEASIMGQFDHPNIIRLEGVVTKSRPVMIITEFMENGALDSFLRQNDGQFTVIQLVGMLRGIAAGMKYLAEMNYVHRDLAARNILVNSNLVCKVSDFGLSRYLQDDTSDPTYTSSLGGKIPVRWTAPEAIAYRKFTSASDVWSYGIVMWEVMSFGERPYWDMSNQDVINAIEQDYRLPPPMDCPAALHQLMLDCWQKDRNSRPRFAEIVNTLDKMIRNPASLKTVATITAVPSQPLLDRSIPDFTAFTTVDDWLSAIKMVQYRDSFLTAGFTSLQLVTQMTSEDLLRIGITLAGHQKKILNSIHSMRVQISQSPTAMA
RET, sequence (P07949 whole entry): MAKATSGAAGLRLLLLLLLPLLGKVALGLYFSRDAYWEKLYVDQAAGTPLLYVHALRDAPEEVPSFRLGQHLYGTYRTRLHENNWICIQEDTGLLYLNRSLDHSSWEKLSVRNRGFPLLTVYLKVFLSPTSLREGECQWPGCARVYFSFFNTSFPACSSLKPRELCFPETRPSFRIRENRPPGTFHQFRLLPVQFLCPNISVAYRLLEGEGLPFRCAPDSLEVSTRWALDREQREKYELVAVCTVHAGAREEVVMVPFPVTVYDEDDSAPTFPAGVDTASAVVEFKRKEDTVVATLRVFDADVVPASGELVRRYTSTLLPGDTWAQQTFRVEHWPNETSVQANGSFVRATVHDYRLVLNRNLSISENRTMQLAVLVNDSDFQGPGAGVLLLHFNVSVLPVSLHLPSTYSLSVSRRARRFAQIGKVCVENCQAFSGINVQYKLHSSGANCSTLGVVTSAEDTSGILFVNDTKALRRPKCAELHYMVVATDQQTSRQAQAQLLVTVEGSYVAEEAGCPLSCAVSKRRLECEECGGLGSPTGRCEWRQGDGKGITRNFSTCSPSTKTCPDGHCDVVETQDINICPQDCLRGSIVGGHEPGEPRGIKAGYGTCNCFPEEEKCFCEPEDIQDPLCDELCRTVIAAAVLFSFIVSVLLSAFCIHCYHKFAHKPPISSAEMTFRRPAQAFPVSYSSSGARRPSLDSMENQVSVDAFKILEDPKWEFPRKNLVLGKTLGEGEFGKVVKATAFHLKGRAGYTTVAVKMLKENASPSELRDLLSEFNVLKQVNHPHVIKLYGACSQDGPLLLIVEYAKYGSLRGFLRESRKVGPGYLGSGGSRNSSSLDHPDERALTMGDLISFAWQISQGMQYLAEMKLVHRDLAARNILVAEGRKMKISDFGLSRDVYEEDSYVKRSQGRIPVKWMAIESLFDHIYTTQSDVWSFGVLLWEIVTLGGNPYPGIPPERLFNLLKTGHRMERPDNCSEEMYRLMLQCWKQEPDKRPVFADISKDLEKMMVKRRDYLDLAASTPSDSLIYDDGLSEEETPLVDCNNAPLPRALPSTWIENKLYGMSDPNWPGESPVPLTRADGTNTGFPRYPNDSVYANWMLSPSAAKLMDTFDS
ACVRL1, sequence (P37023 whole entry): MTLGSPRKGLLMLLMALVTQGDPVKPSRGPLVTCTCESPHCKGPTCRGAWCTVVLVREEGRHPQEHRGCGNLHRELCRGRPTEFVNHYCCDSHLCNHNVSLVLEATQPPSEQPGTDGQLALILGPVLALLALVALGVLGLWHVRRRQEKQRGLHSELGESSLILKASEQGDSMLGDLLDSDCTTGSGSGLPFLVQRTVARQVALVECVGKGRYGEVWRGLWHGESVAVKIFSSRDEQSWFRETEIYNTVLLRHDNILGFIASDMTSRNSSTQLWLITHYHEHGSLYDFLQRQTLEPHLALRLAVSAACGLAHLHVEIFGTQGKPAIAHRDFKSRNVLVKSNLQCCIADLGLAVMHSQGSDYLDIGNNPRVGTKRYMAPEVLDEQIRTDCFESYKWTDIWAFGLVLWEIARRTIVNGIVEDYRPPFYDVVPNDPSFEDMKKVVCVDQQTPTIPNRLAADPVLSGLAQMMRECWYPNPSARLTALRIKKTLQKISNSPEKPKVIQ
GSK3A, sequence (P49840 whole entry): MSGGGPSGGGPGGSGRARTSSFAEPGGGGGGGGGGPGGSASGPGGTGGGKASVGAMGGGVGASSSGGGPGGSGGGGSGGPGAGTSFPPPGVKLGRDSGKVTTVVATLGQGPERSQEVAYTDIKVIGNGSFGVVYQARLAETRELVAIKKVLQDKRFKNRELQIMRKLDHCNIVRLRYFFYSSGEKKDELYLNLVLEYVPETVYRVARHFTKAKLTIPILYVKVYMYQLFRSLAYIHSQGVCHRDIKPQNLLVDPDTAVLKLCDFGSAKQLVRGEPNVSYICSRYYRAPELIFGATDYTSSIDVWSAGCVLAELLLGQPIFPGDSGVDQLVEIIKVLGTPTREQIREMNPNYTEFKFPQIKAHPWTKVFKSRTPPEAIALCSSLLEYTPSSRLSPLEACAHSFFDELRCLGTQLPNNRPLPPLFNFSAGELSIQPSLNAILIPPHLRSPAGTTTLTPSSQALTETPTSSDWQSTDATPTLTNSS
ROCK2, sequence (O75116 whole entry): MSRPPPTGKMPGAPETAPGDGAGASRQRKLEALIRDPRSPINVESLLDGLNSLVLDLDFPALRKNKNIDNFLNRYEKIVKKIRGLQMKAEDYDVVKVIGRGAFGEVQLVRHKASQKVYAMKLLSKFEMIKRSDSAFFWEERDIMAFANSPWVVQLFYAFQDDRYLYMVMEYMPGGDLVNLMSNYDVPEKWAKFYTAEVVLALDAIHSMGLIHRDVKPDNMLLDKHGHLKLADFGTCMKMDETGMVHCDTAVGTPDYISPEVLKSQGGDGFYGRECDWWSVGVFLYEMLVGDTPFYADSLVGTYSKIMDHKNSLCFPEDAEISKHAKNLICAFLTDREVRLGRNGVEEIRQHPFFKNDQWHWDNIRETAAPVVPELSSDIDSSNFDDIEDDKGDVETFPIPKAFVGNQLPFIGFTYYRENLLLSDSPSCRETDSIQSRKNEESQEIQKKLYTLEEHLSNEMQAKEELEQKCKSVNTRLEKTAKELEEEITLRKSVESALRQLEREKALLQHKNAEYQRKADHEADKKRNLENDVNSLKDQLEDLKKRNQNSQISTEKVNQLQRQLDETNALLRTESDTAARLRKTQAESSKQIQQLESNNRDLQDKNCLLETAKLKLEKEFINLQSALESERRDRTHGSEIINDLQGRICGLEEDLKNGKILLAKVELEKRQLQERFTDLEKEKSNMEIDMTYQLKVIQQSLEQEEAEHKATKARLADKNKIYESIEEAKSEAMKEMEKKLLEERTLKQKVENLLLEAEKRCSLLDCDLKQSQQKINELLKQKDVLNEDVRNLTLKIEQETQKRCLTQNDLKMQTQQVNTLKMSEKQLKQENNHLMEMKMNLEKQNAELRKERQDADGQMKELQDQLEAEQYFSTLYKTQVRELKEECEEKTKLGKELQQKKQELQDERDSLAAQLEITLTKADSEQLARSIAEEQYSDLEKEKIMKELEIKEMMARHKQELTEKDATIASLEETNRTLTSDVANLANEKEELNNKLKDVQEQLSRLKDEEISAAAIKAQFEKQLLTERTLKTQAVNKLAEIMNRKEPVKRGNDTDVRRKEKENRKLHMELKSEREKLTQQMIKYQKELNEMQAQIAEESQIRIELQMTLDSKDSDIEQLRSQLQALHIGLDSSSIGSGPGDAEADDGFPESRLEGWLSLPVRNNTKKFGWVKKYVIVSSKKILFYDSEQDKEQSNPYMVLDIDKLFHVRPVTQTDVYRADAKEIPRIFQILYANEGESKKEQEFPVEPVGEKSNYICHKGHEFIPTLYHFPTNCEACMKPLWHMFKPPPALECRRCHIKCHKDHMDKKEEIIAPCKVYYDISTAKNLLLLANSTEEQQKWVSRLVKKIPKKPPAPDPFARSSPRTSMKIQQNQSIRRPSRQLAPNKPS
PAK3, sequence (O75914 whole entry): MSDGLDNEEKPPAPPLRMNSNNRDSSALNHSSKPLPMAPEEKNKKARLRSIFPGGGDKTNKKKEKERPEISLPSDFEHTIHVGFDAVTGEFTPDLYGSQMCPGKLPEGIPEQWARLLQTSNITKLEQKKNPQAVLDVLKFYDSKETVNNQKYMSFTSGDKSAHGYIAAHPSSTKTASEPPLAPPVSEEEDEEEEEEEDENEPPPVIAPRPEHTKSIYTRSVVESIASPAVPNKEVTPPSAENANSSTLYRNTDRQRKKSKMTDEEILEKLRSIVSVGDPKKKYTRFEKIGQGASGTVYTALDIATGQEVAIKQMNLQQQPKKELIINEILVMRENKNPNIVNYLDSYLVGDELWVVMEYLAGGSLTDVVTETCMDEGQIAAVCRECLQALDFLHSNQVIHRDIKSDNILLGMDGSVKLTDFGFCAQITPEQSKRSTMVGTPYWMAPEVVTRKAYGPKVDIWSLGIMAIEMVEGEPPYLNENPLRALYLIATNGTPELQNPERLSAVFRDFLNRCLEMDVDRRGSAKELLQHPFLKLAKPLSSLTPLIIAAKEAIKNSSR

On to `COc1cc2c(cn1)N(C)C(=O)[C@@H](NC(=O)c1nc3n(n1)[C@H](c1ccccc1)CC3)CC2` [GNE684, (S)-N-((S)-7-methoxy-1-methyl-2-oxo-2,3,4,5-tetrahydro-1H-pyrido[3,4-b]azepin-3-yl)-5-phenyl-6,7-dihydro-5H-pyrrolo[1,2-b][1,2,4]triazole-2-carboxamide], for which the remaining binding at 10 µM at ZAP70 is 100%; at HCK, 93%; at FYN, 100%; on YANK1, 100%; on EPHB1, 100%; on LCK, 86%. The remaining binding at 10 µM at RET was found to be 98%; on ROCK2, 100%; on DCAMKL1, 67%; at SgK110 it was 67%; at GSK3A it was 63%; on FGFR2, 99%. Further, the remaining binding at 10 µM at KIT turned out to be 95%; at BMPR2, 100%; at IKK-beta it was 100%; at STK35, 100%; at PAK3, 99%; in test [1] it was 100%. Moreover, the remaining binding at 10 µM on ACVRL1 turned out to be 87%; at MRCKB, 100%; at KIT(L576P), 100%.

The values are drawn from PMC7206119, “RIP1 inhibition blocks inflammatory diseases but not tumor growth or metastases” (Cell Death and Differentiation, 2019).
